{"source": "patent US20140065212A1", "about": "“COATED PHARMACEUTICAL COMPOSITION CONTAINING REGORAFENIB” (Bayer Healthcare LLC, priority 2012, published 2014)", "test": "thermodynamic solubility of regorafenib monohydrate in different solvents", "assay_type": "physicochemical", "details": "thermodynamic from solid", "from_the_text": "Furthermore salts of the compound of formula (I) such as its hydrochloride, mesylate and phenylsulfonate are mentioned in WO 2005/009961. The monohydrate of the compound of formula (I) is mentioned in WO 2008/043446. An improved process for the manufacturing of regorafenib in high purity is described in WO 2011/128261. Due to the limited solubility of regorafenib monohydrate (see table 1) an applicable pharmaceutical composition containing regorafenib is in form of a solid dispersion as described in WO 2006/026500.", "data": [{"compound": "CNC(=O)c1cc(Oc2ccc(NC(=O)Nc3ccc(Cl)c(C(F)(F)F)c3)c(F)c2)ccn1", "note": "[regorafenib monohydrate]", "values": [{"measurement": "solubility", "setting": "aqueous with cosolvent or surfactant or cyclodextrin, solvent: HPβ-Cyclodextrin/water (10:90)", "value": "< 100", "unit": "µg/mL"}, {"measurement": "solubility", "setting": "aqueous with cosolvent or surfactant or cyclodextrin, solvent: PEG 400/water (30:70)", "value": 270, "unit": "µg/mL"}, {"measurement": "solubility", "setting": "light liquid paraffin, oil or lipid, solvent: Ligth liquid paraffin", "value": "< 100", "unit": "µg/mL"}, {"measurement": "solubility", "setting": "oil or lipid, solvent: Oleoylpolyethylenglycol glycerides", "value": 3600, "unit": "µg/mL"}, {"measurement": "solubility", "setting": "organic solvent or mixture, solvent: Ethanol", "value": 6400, "unit": "µg/mL"}, {"measurement": "solubility", "setting": "organic solvent or mixture, solvent: Polyethylenglycol (PEG) 400", "value": 67300, "unit": "µg/mL"}, {"measurement": "solubility", "setting": "solvent: Water", "value": "< 100", "unit": "µg/mL"}]}]}
